What was measured:
[1] = target: human recombinant ATX (Homo sapiens, UniProt Q13822); assay: Enzyme inhibition test (choline release from LPC, Amplex UltraRed fluorescence); type: biochemical; conditions: 200 μM LPC substrate, 1 hr at room temperature, read-out: Experimental Example 1 human ATX IC50
Protocol: [Enzyme Inhibition Test Method]
A mixture (10 μL) of substrate and a set of choline quantification reagents (200 μM LPC (1-Oleoyl-sn-glycero-3-phosphocholine Sigma #L1881), 25 μM Amplex UltraRed reagent (Invitrogen), 0.1 U/mL Peroxidase (TOYOBO), 1 U/mL Choline oxidase (TOYOBO)), prepared with assay buffer (50 mM Tris (pH 8.0), 140 mM NaCl, 5 mM KCl, 1 mM CaCl2, 1 mM MgCl2, 0.1% BSA (Albumin from bovine serum, SIGMA), 0.0025% Triton X-100), enzyme (0.4 ng/μL human recombinant ATX) (10 μL), compound-containing solution (100 nL) were dispensed to a 384-well plate, incubated at room temperature for 1 hr and the fluorescence (Ex. 525 nm/Em. 598 nm) was measured. As the standard, choline chloride was used. With a blank free of enzyme was taken as inhibitory rate 100%, and a control free of inhibitor as inhibitory rate 0%, the inhibitory rate was calculated, and IC50 value was calculated from the inhibitory activity percentage at each concentration.

[2] = target: T1, ATX activity in plasma (Rattus norvegicus, UniProt Q64610); assay: Measurement of ATX activity in plasma (ex vivo), rat single administration test; design: species or system male Wistar rat
T1 construct: from tissue; host or cells: plasma of male Wistar rats after oral dosing
Protocol: [Measurement of ATX Activity in Plasma (Ex Vivo)]
A compound administration solution prepared by wet pulverization in a mixer mill (type: MM400) for 10 min and adjusting to a given concentration with 0.5% aqueous carboxymethylcellulose solution was orally administered to male Wistar rat (5-week-old when used) at 5 mL/kg. Blood samples were collected from the cervical vein over time at 8 to 24 hr after administration. The blood was heparin-treated using a micro blood collection tube Capiject (CJ-AL, TERUMO CORPORATION), and the plasma was separated by centrifugation (4° C., 12,000 rpm, for 2 min), and preserved at −80° C. The rats after blood sampling were euthanized by exsanguination from the caudal vena cava under isoflurane inhalation anesthesia. The measurement of ATX activity in plasma was evaluated using the concentration of choline in the plasma, which was liberated from lysophosphatidylcholine (substrate of ATX) by the lysophospholipase D activity of ATX, as an index. An equal amount of 2× assay buffer (200 mM Tris-HCl pH9.0, 10 mM MgCl2, 1 M NaCl, 0.1% Triton X-100) is added to plasma (12 μL) and reacted at 37° C. for 6 hr. The reaction mixture (10 μL) after reaction for 6 hr and 45 μL of reagent R^1 solution (100 mM Tris-HCl pH 8.0, 0.5 mM TOOS, 10 U/mL peroxidase, 0.01% Triton X-100) were added and blended and absorbance at 550-700 nm was measured and used as a prevalue. As the standard, choline chloride was used. 1 mM choline chloride was diluted with 2× assay buffer up to 7 steps in 2-fold serial dilution, R^1 solution was treated similarly and the absorbance was measured. Furthermore, 15 μL of reagent R^2 solution (100 mM Tris-HCl pH 8.0, 1 mM 4-aminoantipyrine, 10 U/mL choline oxidase, 0.01% Triton X-100) was added, and the mixture was reacted at room temperature for 10 min, and absorbance at 550-700 nm was measured. The choline concentration per reaction time was calculated from the difference between the absorbance after R^2 solution addition and prevalue measured before R^2 addition and used as ATX activity value. inhibitory activity (%)=100×{1−[choline concentration (μM) of test substance administration group/choline concentration (μM) of solvent control group]} <calculating formula>

| IC50 [1] [nM] | Experimental Example 2 Rat single administration test (inhibitory activity (%) 8 hr after 1 mg/kg oral administration) [2] [%] | Compound |
| --- | --- | --- |
| 2 | 94 | O=C(O)[C@H]1C[C@@H]1c1cc(-c2cncc(OC[C@H]3CC[C@H](C(F)(F)F)CC3)c2)ccn1 [Example 9-1, (1S,2S)-2-(5-{[trans-4-(trifluoromethyl)cyclohexyl]methoxy}-3,4′-bipyridin-2′-yl)cyclopropanecarboxylic Acid] |
| 2 | 92 | O=C(O)[C@H]1C[C@@H]1c1cccc(-c2cncc(OC[C@H]3CC[C@H](C(F)(F)F)CC3)c2)n1 [Example 8-1, (1S,2S)-2-(5′-{[trans-4-(trifluoromethyl)cyclohexyl]methoxy}-2,3′-bipyridin-6-yl)cyclopropanecarboxylic Acid] |
| 12 | 92 | O=C(O)CC[C@H]1CN(c2cncc(OCc3ccc(OC(F)(F)F)cc3)c2)CCO1 [Example 14, 3-[(2S)-4-(5-{[4-(trifluoromethoxy)benzyl]oxy}pyridin-3-yl)morpholin-2-yl]propanoic Acid] |
| 5 | 93 | COc1ccc(-c2cnnc(OC[C@H]3CC[C@H](C(F)(F)F)CC3)c2)cc1[C@@H]1C[C@H]1C(=O)O [Example 1-2, (1R,2R)-2-[2-methoxy-5-(6-{[trans-4-(trifluoromethyl)cyclohexyl]methoxy}pyridazin-4-yl)phenyl]cyclopropanecarboxylic Acid] |
| 42 | 75 | O=C(O)CC[C@H]1CN(c2cncc(OCc3ccc(C(F)(F)F)cc3)c2)CCO1 [Example 15, 3-[(2S)-4-(5-{[4-(trifluoromethyl)benzyl]oxy}pyridin-3-yl)morpholin-2-yl]propanoic Acid] |
| 3 | 94 | O=C(O)[C@@H]1C[C@H]1c1cc(-c2cncc(OC[C@H]3CC[C@H](C(F)(F)F)CC3)c2)ccn1 [Example 9-2, (1R,2R)-2-(5-{[trans-4-(trifluoromethyl)cyclohexyl]methoxy}-3,4′-bipyridin-2′-yl)cyclopropanecarboxylic Acid] |
| 7 | 84 | O=C(O)c1ccc2c(c1)CCN2c1cncc(OCC2CCN(CC(F)(F)F)CC2)c1 [Example 39] |
| 1 | 91 | COc1ccc(-c2cnnc(OCc3ccc(OC(F)(F)F)cc3)c2)nc1[C@H]1C[C@@H]1C(=O)O [Example 25] |
| 3 | 80 | COc1ccc(-c2cncc(OCc3ccc(C(F)(F)F)cc3)c2)nc1[C@H]1C[C@@H]1C(=O)O [Example 29] |
| 8 | 89 | Cc1cc(OC(F)(F)F)ccc1COc1cncc(N2CCO[C@@H](CCC(=O)O)C2)c1 [Example 83] |
| 21 | 89 | O=C(O)CC[C@H]1CN(c2cncc(OCc3ccc(OC(F)(F)F)c(F)c3)c2)CCO1 [Example 84] |
| 3 | 83 | O=C(O)/C=C/C[C@@H]1COCCN1c1cncc(OCc2ccc(OC(F)(F)F)cc2)c1 [Example 22-1, (2E)-4-[(3R)-4-(5-{[4-(trifluoromethoxy)benzyl]oxy}pyridin-3-yl)morpholin-3-yl]-2-butenoic Acid] |
| 9 | 72 | COc1ccc(-c2cncc(OCc3ccc(OC(F)(F)F)cc3)c2)cc1[C@@H]1C[C@H]1C(=O)O (relative stereo) [Example 2, trans-2-[2-methoxy-5-(5-{[4-(trifluoromethoxy)benzyl]oxy}pyridin-3-yl)phenyl]cyclopropanecarboxylic Acid] |
| 2 | 74 | COc1cc(C2CN(c3cncc(OC[C@H]4CC[C@H](C(F)(F)F)CC4)c3)CCO2)ccc1C(=O)O (stereo partly drawn) [Example 46] |
| 11 | 83 | O=C(O)CCCC1CCCN1c1cncc(OCc2ccc(OC(F)(F)F)cc2)c1 (stereo not drawn) [Example 23, 4-[1-(5-{[4-(trifluoromethoxy)benzyl]oxy}pyridin-3-yl)pyrrolidin-2-yl]butanoic Acid] |
| 16 | 95 | C[C@@H]1CN(c2cncc(OCc3ccc(OC(F)(F)F)cc3)c2)C[C@H](CCC(=O)O)O1 [Example 87] |
| 39 | 70 | O=C(O)CCC1CN(c2cncc(OCc3ccc(OC(F)(F)F)cc3)c2)CCN1CC(F)(F)F (stereo not drawn) [Example 93] |
| 3 | 71 | O=C(O)c1cccc(C2CN(c3cncc(OC[C@H]4CC[C@H](C(F)(F)F)CC4)c3)CCO2)c1 (relative stereo) [Example 13, 3-[4-(5-{[trans-4-(trifluoromethyl)cyclohexyl]methoxy}pyridin-3-yl)morpholin-2-yl]benzoic Acid] |
| 5 | 82 | COc1ccc(-c2cncc(OCc3ccc(OC(F)(F)F)cc3)c2)nc1[C@H]1C[C@@H]1C(=O)O [Example 26] |
| 4 | 71 | COc1ccc(-c2cncc(CCc3ccc(OC(F)(F)F)cc3)c2)nc1[C@H]1C[C@@H]1C(=O)O [Example 6, (1S,2S)-2-(5-methoxy-5′-{2-[4-(trifluoromethoxy)phenyl]ethyl}-2,3′-bipyridin-6-yl)cyclopropanecarboxylic Acid] |
| 57 | 73 | O=C(O)CC1CCCN(c2cncc(OCc3ccc(OC(F)(F)F)cc3)c2)C1 (stereo not drawn) [Example 92] |

Reference: patent US11958812B2, “3, 5-disubstituted pyridine and 3, 5-disubstituted pyridazine derivatives and pharmaceutical use of same” (MITSUBISHI TANABE PHARMA CORPORATION, priority 2018, dated 2024)
